Columns and labels:
mice = assay: Experimental shock model (SIRS), D-galactosamine, i.p. injection; type: in vivo; conditions: for Survival in shock model: mice, i.p. with D-galactosamine
Description: Experimental shock model. Age- and sex-matched mice were injected with 5 mg of HS, 5 μg of LPS, 5 μg of Limulus anti-LPS factor, 5 mg of chondroitin sulfate, 200 U (−5 mg) heparin, 150 μg of CpG DNA, 1.5 U of elastase, or PBS mixed with 20 mg of D-galactosamine in a total volume of 500 μl of PBS by i.p. injection as previously described (Franks et al. (1991) Infect. Immun. 59:2609). Concentrations of HS and elastase were calculated by weight of lyophilized powder, and the doses used were near the LD50 based on dose-response experiments. In some experiments, the agonist was mixed with 5 or 20 μg of Limulus anti-LPS factor before injection. For some injections, enzymes were boiled at 100° C. for 60 minutes and vortexed vigorously, or preincubated with elastase inhibitor-1 for 4 hours at room temperature and then mixed with D-galactosamine before injection. Mice were monitored every hour for 48 hours and then euthanized.
During sepsis, Gram-negative bacteria shed LPS, which activates TLR4 on cells that then release inflammatory cytokines mediating systemic inflammation and death (Beutler (2000) Curr. Opin. Immunol. 12:20). To determine whether soluble HS can induce a model of systemic inflammatory response syndrome (SIRS) via activation of TLR4 in mice, HS was administered by i.p. injection to TLR4 wild type and mutant mice. This mouse model system has been used to study shock and a sepsis-like syndrome in response to microbial toxins (Galanos et al. (1979) Proc. Natl. Acad. Sci. USA 76:5939). […] Moreover, the observed responses were not due to contamination of HS by LPS, since the HS used was not contaminated with LPS.

TLR4/MD2 complex = target: T1, TLR4/MD2 complex (Mus musculus, UniProt Q9JHF9+Q9QUK6); assay: Cell surface expression of TLR4/MD2 in HEK/TLR4(+) cells by flow cytometry; type: cell-based, murine
T1 construct: expressed in transfected cells; host or cells: HEK 293 clone HEK/TLR4(+)
T1 sequence (Q9QUK6 26-835): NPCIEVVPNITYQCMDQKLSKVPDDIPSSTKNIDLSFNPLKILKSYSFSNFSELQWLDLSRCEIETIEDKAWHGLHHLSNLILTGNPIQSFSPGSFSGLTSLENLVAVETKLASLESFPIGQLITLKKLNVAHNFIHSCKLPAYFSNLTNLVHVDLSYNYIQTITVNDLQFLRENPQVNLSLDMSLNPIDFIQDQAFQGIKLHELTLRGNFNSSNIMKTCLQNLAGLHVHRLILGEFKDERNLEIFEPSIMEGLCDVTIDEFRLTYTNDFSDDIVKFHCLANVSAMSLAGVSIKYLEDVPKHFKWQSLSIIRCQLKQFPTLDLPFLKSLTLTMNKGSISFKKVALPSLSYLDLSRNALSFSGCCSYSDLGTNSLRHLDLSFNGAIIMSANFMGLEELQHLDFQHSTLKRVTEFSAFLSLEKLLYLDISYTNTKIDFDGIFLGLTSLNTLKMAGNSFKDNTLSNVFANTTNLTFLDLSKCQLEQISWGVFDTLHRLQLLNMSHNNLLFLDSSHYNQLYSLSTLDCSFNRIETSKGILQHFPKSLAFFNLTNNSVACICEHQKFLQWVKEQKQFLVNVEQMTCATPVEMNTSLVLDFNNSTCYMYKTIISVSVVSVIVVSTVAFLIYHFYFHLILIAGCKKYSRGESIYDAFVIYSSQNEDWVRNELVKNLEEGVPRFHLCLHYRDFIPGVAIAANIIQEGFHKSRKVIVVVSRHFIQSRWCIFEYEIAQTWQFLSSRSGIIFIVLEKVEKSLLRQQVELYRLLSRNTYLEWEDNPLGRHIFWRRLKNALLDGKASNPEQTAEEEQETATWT
T1 sequence (Q9JHF9 19-160): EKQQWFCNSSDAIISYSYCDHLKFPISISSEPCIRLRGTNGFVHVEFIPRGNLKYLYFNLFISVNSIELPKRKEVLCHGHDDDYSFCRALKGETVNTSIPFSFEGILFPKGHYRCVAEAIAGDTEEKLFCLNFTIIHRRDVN
Description: FIG. 2A is a graph plotting the level of reporter activity in HEK/TLR4(+) cells transfected with NFκB- and control-luciferase reporter plasmids and then stimulated with intact HS or LPS, or with HS or LPS that had been treated with nitrous acid (HNO2) at pH 4.0 or pH 1.5. Controls were treated with PBS vehicle. […] FIG. 2C is a graph showing the effect of PBS, HS, depolymerized HS (nitrous acid, pH 1.5), and recombinant human IL-1α on cell surface expression of TLR4/MD2 in HEK/TLR4(+) cells. Expression of TLR4 on the cell surface was determined by flow cytometry using a monoclonal antibody specific to the TLR4/MD2 complex. Values are the mean of triplicate wells and are representative of three separate experiments.
To determine whether the effect of HS occurred through specific action on TLR4, surface expression of the TLR4/MD2 complex on cells treated with HS was examined. […] Thus, HEK/TLR4(+) cells responded to HS by activating NFκB and mobilizing receptor complexes.

TLR4 = target: T2, TLR4 (Mus musculus, UniProt Q9JHF9+Q9QUK6); assay: NFκB-luciferase reporter assay in HEK 293 cells stably expressing TLR4, MD2 and/or CD14; type: cell-based, murine; set-up: expressed in transfected cells; host or cells: HEK 293; conditions: HEK 293 cells lacking TLR4 and MD2 or CD14
T2 sequence (Q9QUK6 26-835): T1 sequence (Q9QUK6 26-835)
T2 sequence (Q9JHF9 19-160): T1 sequence (Q9JHF9 19-160)
Description: Model ECM environment. Tissue culture plates were coated with ECM as follows. PAEC were seeded into 6-well (3×10^5 cells/well), 24-well (5×10^4 cells/well) or 100 mm (2×10^5 cells) fibronectin-coated tissue culture plates (BD Biosciences, San Jose, Calif.) in DMEM (Invitrogen) containing 10% fetal bovine serum supplemented with penicillin and streptomycin and 4% w/v of Dextran 40. The cell cultures were incubated at 37° C. in 5% CO2 humidified atmosphere for seven days and were supplemented with […] on day three and day five. After 7 days, endothelial cells were washed once with phosphate buffered saline (PBS) and lysed by exposure to 0.5% w/v Triton X-100 and 20 mM NH4OH in PBS (pH 7.4) at 37° C. for 20 minutes (Bonifacino, 1998). The wells were then washed 4 times with PBS (pH 7.4) and inspected microscopically to ensure removal of the cells. Plates were used immediately or were stored in PBS (pH 7.4) with […] at 4° C.
HEK 293 cells were stably transfected with the TLR4 and MD2 or CD14 expression plasmids using Superfect (Qiagen, Valencia, Calif.) following the manufacturer's instructions. HEK 293 cells expressing TLR4 and MD2 or CD14 were obtained by culturing the transfected cells with appropriate antibiotic selection medium, and were cloned by limiting dilution in the selection medium. HEK 293 cells expressing TLR4, MD2 and CD14 were generated by transfecting HEK 293 cells that expressed TLR4 and MD2 with the CD14 expression plasmid, and selecting clones using appropriate antibiotic containing medium. Cell lines expressing TLR4 and MD2 and/or CD14 were then maintained in DMEM supplemented with 10% fetal bovine serum and the appropriate selection antibiotics. Control cell lines were transfected with empty expression vectors and incubated in selection conditions as described above. Selected clones were tested for cell surface expression of the TLR4/MD2 complex and CD14 by flow cytometry using monoclonal antibodies specific for the TLR4/MD2 complex or CD14.
NFκB-luciferase reporter assays. Activation of NFκB was measured using a NFκB-luciferase reporter assay. HEK 293 cell lines stably expressing TLR4, MD2 and/or CD14, or control cells were seeded into 24 well tissue culture plates (2×10^5 cells/well) in 1.0 ml DMEM containing 10% fetal bovine serum and penicillin and streptomycin. The cells were allowed to adhere to the culture wells at 37° C. overnight and were then transfected with […] NFκB-firefly-luciferase using Superfect Transfection Reagent (Qiagen). Following transfection, the cells were washed once with phosphate buffered saline and cultured for 24 hours at 37° C. in 1.0 ml DMEM containing 0.5% fetal bovine serum. After various treatments, the culture medium was aspirated and the cells were washed once with PBS. The cells were lysed in […] Passive Lysis Buffer (Promega) with rocking at room temperature for 15 minutes. Renilla- and Firefly-luciferase were assayed simultaneously using the Dual-Luciferase Reporter Assay System (Promega) and a TD-20/20 luminometer (Turner Designs, Sunnyvale, Calif.). Activation of NFκB was reported as a ratio of the firefly luciferase activity to the constitutively expressed Renilla luciferase internal control, and is the mean of triplicate wells.
To determine whether and under what conditions HS stimulates TLR4, various combinations of TLR4, MD2 and CD14, components of the putative TLR4 receptor complex, were stably expressed in HEK 293 cells and the effect of HS on TLR4 signaling in the transfected cells was examined (FIG. 1). The HEK 293 cells expressing receptor components were transiently transfected with a NFκB-firefly luciferase reporter construct along with a Renilla-luciferase internal control reporter construct. […]

Substance: Boc-Ala-Ala-Ala-NHO-Bz [elastase inhibitor-1]
- Reduction of the death rate after elastase injection (mice; elastase preincubated with elastase inhibitor-1 for 4 hours): 50%

Substance: recombinant human IL-1α: recombinant human IL-1α, activates NFκB via the IL-1 receptor
- Change in surface expression of TLR4/MD2 (TLR4/MD2 complex): did not change
- Activation of NFκB-luciferase reporter (TLR4): activated

Substance: heparin
- Survival in shock model (mice): survived

Substance: chondroitin sulfate
- Survival in shock model (mice): all but one mouse

Source: patent US20100158808A1, “Altered Activity of Toll-Like Receptors” (priority 2003, published 2010)
